Common to all, as to type: in vivo, rat
In assay [1] the test system is TNF-α. Nature of the assay: Serum TNF-α ELISA in TNBS-induced colitis. The conditions noted are these: means±SE, n = 8. How it is done: (§1) Chronic colitis was induced by weekly rectal injections of increasing doses of TNBS over 6 weeks (15, 30, 45, 60, 60, and 60 mg from day 0 to day 35), as previously described (4,12). Briefly, after food deprivation for 24 h, rats were anesthetized with an intraperitoneal injection of 1% isoflurane. TNBS was dissolved in ethanol (50%) and instilled into the colon using a cannula (0.25 mL), and then the rats were held upside down for 3 min to prevent escape of the intracolonic TNBS. Roflumilast was dissolved in dimethyl sulfoxide and diluted in 0.5% carboxymethyl cellulose sodium to a final concentration of 5.0 mg·kg^−1·day^−1 as previously described (13). Five groups of rats (n=8) were established: normal control (NC group), TNBS-treated (TNBS group, positive control), and three TNBS-treated groups that received oral sulfasalazine (SS group, 500 mg/kg) (14), oral roflumilast (by gastric gavage, OR group, 5 mg/kg), or rectal roflumilast (RR group, 5 mg/kg). Treatments were administered once daily in a volume of 200 μL for 15 days starting 48 h after the induction of colitis (from day 37) (15), and the control rats received equal amounts of vehicle. At the end of the treatment period, the rats were evaluated with the colitis activity score. To detect the effects of the treatments on systemic inflammatory processes, blood was collected for measurements of the proinflammatory mediators TNF-α, IL-2, and IL-6. At the end of the 15-day treatment period, the rats were sacrificed by cervical dislocation, and the colon was isolated, cleaned of feces, and measured for weight and length. Colonic myeloperoxidase (MPO) activity and glutathione (GSH) and malonaldehyde (MDA) levels were measured. The colon was examined macroscopically for gross changes and microscopically in sections stained with hematoxylin and eosin (H&E), Masson trichrome, and Periodic Acid Schiff (PAS) stains as well as KI-67 and TNF-α immunostaining. Blood was collected through cardiac puncture. The serum was obtained and stored at −80° C. until analysis. […]
For orientation: ELISA stands for enzyme-linked immunosorbent assay.

Another assay concerns IL-2. As to the kind of experiment: Serum IL-2 ELISA in TNBS-induced colitis. The conditions noted are these: means±SE, n = 8. How it is done: as §1
Assay [2] has as its system TNF-α. Nature of the assay: TNF-α immunostaining of colonic sections. How it is done:
as §1, with “[…] This primary antibody” for “Blood”, “detected using avidin-biotin peroxidase detection solution (Dako), and the signal” for “collected through cardiac puncture. The serum”, “visualized using diaminobenzidine.” for “obtained and stored at −80° C. until analysis.”

[3] abbreviates: oral, once daily for 15 days, SS 500 mg/kg, OR 5 mg/kg.
Where [4] appears, read: oral, once daily for 15 days, sulfasalazine 500 mg/kg, roflumilast 5 mg/kg.
[5] abbreviates: rectal, 5 mg/kg once daily for 15 days.

Marks after values point to notes of the source that are not given here.

Turning to `O=C(O)c1cc(/N=N/c2ccc(S(=O)(=O)Nc3ccccn3)cc2)ccc1O` [sulfasalazine], the “serum level of TNF-α” value in the assay with TNF-α [1] (setting [3]) is recorded as 28.93 ± 0.5^b, d pg/mL. Further, the “serum level of IL-2” value with IL-2 (setting [3]) is given as 257.97 ± 7.72^g pg/mL. Also, the “TNF-α immunoexpression in the mucosa” value in the assay with TNF-α [2] (setting [4]) is recorded as “very faint positive reactions”.

For the compound `O=C(Nc1c(Cl)cncc1Cl)c1ccc(OC(F)F)c(OCC2CC2)c1` [roflumilast], the “serum level of TNF-α” value with TNF-α [1] (setting [3]) was 38.87 ± 2.33^a, b, f pg/mL; in the assay on TNF-α [1] (setting [5]), 79.37 ± 1.88^a, c, e pg/mL. In addition, the “serum level of IL-2” value with IL-2 (setting [3]) is 302.75 ± 11.32^g, h, i pg/mL; in the assay with IL-2 (setting [5]) it was 363.87 ± 12.73^g pg/mL. The “TNF-α immunoexpression in the mucosa” value is on record as “moderately positive reactions” in the assay on TNF-α [2] (setting [4]) and “strong positive reactions” with TNF-α [2] (setting [5]).
